{"source": "patent US20040142048A1", "about": "“Compositions based on proanthocyanadin-catechin synergies for prevention and treatment of cancer” (priority 2004, published 2004)", "key": {"cancer cells": {"tested_on": "cancer cells", "experiment": "Effect of EGCg on cancer cell growth and apoptosis", "assay_type": "cell-based"}, "[1]": {"experiment": "Clearance of EGCg from the blood", "conditions": "in vivo"}}, "data": [{"substance": "(−)-epigallocatechin gallate [EGCg]", "values": [{"measurement": "time cancer cells must be inhibited from growing before EGCg-induced apoptosis occurs", "setting": "cancer cells", "value": "48 to 72", "unit": "h"}, {"measurement": "growth of cancer cells challenged with EGCg", "setting": "cancer cells; 10^−7 M EGCg every two hours during the day", "value": "growth is inhibited"}, {"measurement": "reversibility of the effect on cancer cell growth", "setting": "cancer cells; EGCg removed, cells resume normal rates of growth", "value": "reversible"}, {"measurement": "clearance from the blood", "setting": "[1]", "value": "rapidly cleared from the blood and metabolized"}]}]}
